Assay results from patent US8163771B2, “11 β-HSD1 modulators” (Exelixis, Inc., priority 2008, dated 2012).

Each compound was assayed against T1, recombinant human 11 β-HSD1 (Homo sapiens, UniProt P28845) (assay: 11 β-HSD1 SPA Assay (Scintillation Proximity Assay)).
T1 construct: made in house; host or cells: E. coli
T1 sequence (P28845 whole entry): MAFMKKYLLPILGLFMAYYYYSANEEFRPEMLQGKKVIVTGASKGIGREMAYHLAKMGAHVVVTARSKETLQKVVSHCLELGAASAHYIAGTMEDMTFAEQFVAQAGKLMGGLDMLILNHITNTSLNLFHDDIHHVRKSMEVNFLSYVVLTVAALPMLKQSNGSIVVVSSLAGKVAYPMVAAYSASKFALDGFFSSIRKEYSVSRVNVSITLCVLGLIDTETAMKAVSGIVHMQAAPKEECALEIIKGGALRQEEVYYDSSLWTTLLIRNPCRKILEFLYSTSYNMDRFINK
Format: biochemical
How it was run: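 Scintillation proximity read-out of cortisol formed from 40 nM [3H]cortisone by purified recombinant human enzyme (30-100 nM, E. coli) with 1 mM NADPH, pH7.4, 2 hours at room temperature; beads with cortisol antibody and glycyrrhetinic acid stop the reaction, read next day. IC50 derived from inhibition normalised to background and maximal wells.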
Work on `CC(C)(Oc1cc(F)c(Cl)cc1Cl)C(=O)N[C@H]1C[C@H]2CC[C@@H](C1)N2c1ccc(C(=O)NC2CC2)cn1` [Example 91, N-cyclopropyl-6-[3-endo-({2-[(2,4-dichloro-5-fluorophenyl)oxy]-2-methylpropanoyl}amino)-8-azabicyclo[3.2.1]oct-8-yl]pyridine-3-carboxamide] yielded an IC50 of under 200 nM. Compound `CC(C)(Oc1cc(F)c(Cl)cc1Cl)C(=O)N[C@H]1C[C@H]2CC[C@@H](C1)N2c1ccc(S(C)(=O)=O)cn1` [Example 236, 2-[(2,4-dichloro-5-fluorophenyl)oxy]-2-methyl-N-{8-[5-(methylsulfonyl)pyridin-2-yl]-8-azabicyclo[3.2.1]oct-3-endo-yl}propanamide] has an IC50 of under 200 nM. `CC(C)(Oc1ccc(Cl)c(F)c1)C(=O)N[C@H]1C[C@H]2CC[C@@H](C1)N2c1ccc(S(C)(=O)=O)cc1` [Example 241, 2-[(4-chloro-3-fluorophenyl)oxy]-2-methyl-N-{8-[4-(methylsulfonyl)phenyl]-8-azabicyclo[3.2.1]oct-3-endo-yl}propanamide] showed an IC50 of under 2000 nM. `CC(C)(Oc1ccc(F)cc1)C(=O)N[C@H]1C[C@H]2CC[C@@H](C1)N2c1ccc(S(C)(=O)=O)cn1` [Example 230, 2-[(4-fluorophenyl)oxy]-2-methyl-N-{8-[5-(methylsulfonyl)pyridin-2-yl]-8-azabicyclo[3.2.1]oct-3-endo-yl}propanamide] gave an IC50 of under 2000 nM. Compound `CC(C)(Oc1ccccc1S(C)(=O)=O)C(=O)N[C@H]1C[C@H]2CC[C@@H](C1)N2c1ccc(C(N)=O)cn1` [Example 326, 6-{3-endo-[(2-methyl-2-{[2-(methylsulfonyl)phenyl]oxy}propanoyl)amino]-8-azabicyclo[3.2.1]oct-8-yl}pyridine-3-carboxamide] has an IC50 of under 200 nM. With `CC(C)(Oc1cc(F)c(F)cc1Cl)C(=O)N[C@H]1C[C@H]2CC[C@@H](C1)N2c1ccc(S(C)(=O)=O)cn1` [Example 231, 2-[(2-chioro-4,5-difluorophenyl)oxy]-2-methyl-N-{8-[5-(methylsulfonyl)pyridin-2-yl]-8-azabicyclo[3.2.1]oct-3-endo-yl}propanamide] the IC50 was under 200 nM. Compound `CC(C)(Oc1ccc(F)cc1Cl)C(=O)N[C@H]1C[C@H]2CC[C@@H](C1)N2c1ccc(C(=O)NCC(F)(F)F)cn1` [Example 52, 6-[3-endo-({2-[(2-chloro-4-fluorophenyl)oxy]-2-methylpropanoyl}amino)-8-azabicyclo[3.2.1]oct-8-yl]-N-(2,2,2-trifluoroethyl)pyridine-3-carboxamide] has an IC50 of under 200 nM. `CC(C)(Oc1ccccc1C(F)(F)F)C(=O)N[C@H]1C[C@H]2CC[C@@H](C1)N2c1ccc(S(C)(=O)=O)cc1` [Example 257, 2-methyl-N-{8-[4-(methylsulfonyl)phenyl]-8-azabicyclo[3.2.1]oct-3-endo-yl}-2-{[2-(trifluoromethyl)phenyl]oxy}propanamide] showed an IC50 of under 200 nM. Compound `CC(C)(Oc1ccccc1C(F)(F)F)C(=O)N[C@H]1C[C@H]2CC[C@@H](C1)N2c1ccc(S(C)(=O)=O)cn1` [Example 255, 2-methyl-N-{8-[5-(methylsulfonyl)pyridin-2-yl]-8-azabicyclo[3.2.1]oct-3-endo-yl}-2-{[2-(trifluoromethyl)phenyl]oxy}propanamide] has an IC50 of under 200 nM. `CC(C)NC(=O)c1ccc(N2[C@@H]3CC[C@H]2C[C@@H](NC(=O)C(C)(C)Oc2ccc(Cl)cc2Cl)C3)nc1` [Example 54, 6-[3-endo-({2-[(2,4-dichlorophenyl)oxy]-2-methylpropanoyl}amino)-8-azabicyclo[3.2.1]oct-8-yl]-N-(1-methylethyl)pyridine-3-carboxamide] gave an IC50 of under 200 nM. For `CC(C)(Oc1ccc(F)cc1Cl)C(=O)N[C@H]1C[C@H]2CC[C@@H](C1)N2c1ccc(C(N)=O)cn1` [Example 74, 6-[3-endo-({2-[(2-chloro-4-fluorophenyl)oxy]-2-methylpropanoyl}amino)-8-azabicyclo[3.2.1]oct-8-yl]pyridine-3-carboxamide], the IC50 was under 200 nM. `CC(C)(Oc1ccc(Cl)cc1Br)C(=O)N[C@H]1C[C@H]2CC[C@@H](C1)N2c1ccc(C(=O)NCC(F)(F)F)cn1` [Example 337, 6-(3-endo-{[2-(2-bromo-4-chlorophenoxy)-2-methylpropanoyl]amino}-8-azabicyclo[3.2.1]oct-8-yl)-N-(2,2,2-trifluoroethyl)pyridine-3-carboxamide] was tested, and the IC50 was under 200 nM. Work on `CC(C)(Oc1ccc(Cl)cc1Cl)C(=O)N[C@H]1C[C@H]2CC[C@@H](C1)N2c1ccc(NC(=O)CC(F)(F)F)cc1Cl` [Example 138, N-{3-chloro-4-[3-endo-({2-[(2,4-dichlorophenyl)oxy]-2-methylpropanoyl}amino)-8-azabicyclo[3.2.1]oct-8-yl]phenyl}-3,3,3-trifluoropropanamide] yielded an IC50 of under 2000 nM. `CC(C)(Oc1ccc(Cl)cc1Cl)C(=O)NC1CC2CCC(C1)N2c1ncc(NC(=O)CC(F)(F)F)cc1Cl` (stereo not drawn) [Example 278, N-{5-chloro-6-[3-endo-({2-[(2,4-dichlorophenyl)oxy]-2-methylpropanoyl}amino)-8-azabicyclo[3.2.1]oct-8-yl]pyridin-3-yl}-3,3,3-trifluoropropanamide] gave an IC50 of under 2000 nM. With `COc1cc(F)ccc1OC(C)(C)C(=O)N[C@H]1C[C@H]2CC[C@@H](C1)N2c1ccc(S(C)(=O)=O)cn1` [Example 220] the IC50 was under 200 nM. For `CCC(Oc1ccc(Cl)cc1)C(=O)N[C@H]1C[C@H]2CC[C@@H](C1)N2c1ccc(C(=O)NCCOC)cn1` (stereo partly drawn) [Example 81, 6-[3-endo-({2-[(4-chlorophenyl)oxy]butanoyl}amino)-8-azabicyclo[3.2.1]oct-8-yl]-N-[2-(methyloxy)ethyl]pyridine-3-carboxamide], the IC50 was under 2000 nM. `CC(C)(Oc1ccc(C(F)(F)F)cc1)C(=O)N[C@H]1C[C@H]2CC[C@@H](C1)N2c1ccc(S(C)(=O)=O)cc1` [Example 245, 2-methyl-N-{8-[4-(methylsulfonyl)phenyl]-8-azabicyclo[3.2.1]oct-3-endo-yl}-2-{[4-(trifluoromethyl)phenyl]oxy}propanamide] showed an IC50 of under 2000 nM. For `CC(C)(Oc1ccc(Cl)c(C(F)(F)F)c1)C(=O)N[C@H]1C[C@H]2CC[C@@H](C1)N2c1ccc(C(=O)NCC(F)(F)F)cn1` [Example 186, 6-{3-endo-[(2-{[4-chloro-3-(trifluoromethyl)phenyl]oxy}-2-methylpropanoyl)amino]-8-azabicyclo[3.2.1]oct-8-yl}-N-(2,2,2-trifluoroethyl)pyridine-3-carboxamide], the IC50 was under 200 nM. `CC(C)(Oc1cc(C(C)(C)O)c(Cl)cc1F)C(=O)N[C@H]1C[C@H]2CC[C@@H](C1)N2c1ccc(C(=O)NCC(F)F)cn1` [Example 466, 6-(3-endo-(2-(4-chloro-2-fluoro-5-(2-hydroxypropan-2-yl)phenoxy)-2-methylpropanamido)-8-azabicyclo[3.2.1]octan-8-yl)-N-(2,2-difluoroethyl)nicotinamide] was tested, and the IC50 was under 200 nM. Compound `CC(C)(Oc1cc(Cl)c(F)cc1Cl)C(=O)N[C@H]1C[C@H]2CC[C@@H](C1)N2c1ccc(C(=O)NCC(F)(F)F)cn1` [Example 98, 6-[3-endo-({2-[(2,5-dichloro-4-fluorophenyl)oxy]-2-methylpropanoyl}amino)-8-azabicyclo[3.2.1]oct-8-yl]-N-(2,2,2-trifluoroethyl)pyridine-3-carboxamide] has an IC50 of under 200 nM. `CC(C)(Oc1ccc(F)c(Cl)c1Cl)C(=O)N[C@H]1C[C@H]2CC[C@@H](C1)N2c1ccc(C(N)=O)cn1` [Example 97, 6-[3-endo-({2-[(2,3-dichloro-4-fluorophenyl)oxy]-2-methylpropanoyl}amino)-8-azabicyclo[3.2.1]oct-8-yl]pyridine-3-carboxamide] showed an IC50 of under 200 nM.
